{"source": "patent US11434222B2", "about": "“MAGL inhibitors” (H. LUNDBECK A/S, priority 2020, dated 2022)", "key": {"[1]": {"experiment": "In vitro rat blood to plasma ratio", "assay_type": "in vitro ADME", "settings": "1 μM test compound", "protocol": "(§1) Brain disposition was evaluated in male Sprague-Dawley rats (n=3, standard body weight). Briefly, test compound was formulated as a simple suspension, in 0.5% HPMC in water, then administered by oral gavage (5 mg/kg, 5 mL/kg). Four hours post dosing, rats were sacrificed, and terminal blood and brain samples were taken. Blood was obtained via cardiac puncture (0.1 mL) and was added into 0.4 mL CH3CN for precipitation immediately. The samples were stored at −75+/−15° C. prior to analysis. Brain tissue samples were collected after animals were fully exsanguinated, and the tissues were washed with cold saline quickly. After sectioning, brain sections were immediately frozen in liquid nitrogen and stored at −75+/−15° C. prior to analysis. Blood and brain samples were analyzed by LC/MS/MS using an optimized analytical method. Concentrations of test compound in blood and brain were quantified against matrix matched calibration standards. The total blood, plasma, and brain concentration data are presented in Table 2 alongside the calculated brain Kp (total brain concentration:total plasma concentration ratio), the calculated brain kp,uu (unbound brain concentration:unbound plasma concentration ratio), the free fractions in rat plasma and brain, and the in vitro rat blood to plasma distribution profile. The total plasma concentration data were calculated from the total blood concentration data using rat blood to plasma ratio which was measured in vitro (1 μM test compound). For kp,uu determination, the free fraction in rat plasma and brain homogenate were measured in vitro by standard equilibrium dialysis (1 μM test compound and 6 h equilibration against buffer pH 7.4; for rat plasma analysis, 100 mM stock solution of diisopropyl fluorophosphate was added to the pre-warmed rat plasma prior to adding test article)."}, "[2]": {"experiment": "Rat Kp, brain disposition after oral gavage", "assay_type": "in vivo", "settings": "for Total plasma concentration / Total blood concentration / Total brain concentration: 5 mg/kg oral gavage; for Total plasma concentration / Kp at 4 h / Kp uu at 4 h: 4 h; for Total plasma concentration: calculated from total blood concentration using blood to plasma ratio; for Total blood concentration / Total brain concentration: 4 h post dosing, mean n = 3; for Kp at 4 h / Kp uu at 4 h: male, Sprague-Dawley, po, 5 mg/kg p.o.; for Kp at 4 h: total brain concentration:total plasma concentration ratio; for Kp uu at 4 h: unbound brain concentration:unbound plasma concentration ratio", "protocol": "as §1"}, "[3]": {"experiment": "In vitro human hepatocyte stability", "assay_type": "in vitro ADME", "settings": "cryopreserved human hepatocytes (pooled donor), human hepatocytes 0.5×10^6 cells/mL, read-out: Scaled-up unbound CLint", "protocol": "The metabolic stability of test articles (1 μM) in commercially sourced, pooled donor, cryopreserved human hepatocytes (0.5×10^6 cells/mL) was determined in duplicate. The CLint reactions (250 μL) were initiated by addition of test compound. Aliquots (25 μL) were taken at 0, 15, 30, 45, 60, 90, 120 and 240 minutes and then protein crashed with ice-cold acetonitrile containing internal standard then centrifuged (3220 g for 25 minutes). Supernatant was used for LC-MS/MS analysis. The in vitro half-life (in vitro t1/2) was determined from the slope value: in vitro t1/2=−0.693/k. Conversion of the in vitro t1/2 (in min) into the scale-up unbound intrinsic clearance (Scaled-up unbound CLint, in mL/min/kg) was done using the following equation (mean of duplicate determinations), with data shown in Table 5: Scaled-up unbound CLint=kV/N×scaling factor. V=incubation volume (0.25 mL); N=number of hepatocytes per well ([…]). Scaling factors for in vivo intrinsic clearance prediction are listed below: […]"}, "[4]": {"target": "T1, MAGL (Mus musculus, UniProt O35678)", "T1 construct": "brain proteomes were prepared and analyzed according to previously established methods; from tissue; host or cells: brain of wild-type C57Bl/6J mice", "T1 sequence (O35678 1-303)": "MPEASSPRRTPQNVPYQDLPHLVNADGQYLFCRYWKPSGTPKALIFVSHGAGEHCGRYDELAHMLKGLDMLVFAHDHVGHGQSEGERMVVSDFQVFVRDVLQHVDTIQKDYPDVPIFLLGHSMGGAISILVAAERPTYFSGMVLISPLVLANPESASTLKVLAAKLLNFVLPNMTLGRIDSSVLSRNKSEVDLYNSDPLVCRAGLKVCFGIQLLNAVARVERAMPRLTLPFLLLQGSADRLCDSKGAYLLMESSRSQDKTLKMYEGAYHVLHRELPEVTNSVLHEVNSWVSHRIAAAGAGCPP", "experiment": "In vivo MAGL inhibition in mouse brain proteomes after oral gavage", "settings": "5 mg/kg oral gavage, 4 h after administration, read-out: MAGL % inh. 5 mg/kg (mouse)", "protocol": "Inhibitors were administered to wild-type C57B1/6J by oral gavage in a vehicle of polyethylene glycol. Each animal was sacrificed 4 h following administration and brain proteomes were prepared and analyzed according to previously established methods (See Niphakis, M. J., et al. (2011) ACS Chem. Neurosci. and Long, J. Z., et al. Nat. Chem. Biol. 5:37-44)."}, "[5]": {"experiment": "Kinetic solubility in PBS", "assay_type": "physicochemical", "settings": "aqueous buffer, kinetic from dmso stock", "procedure,_shortened": "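Solubility measured in PBS at pH 2.0 and pH 7.4, in duplicate, starting from 10 mM DMSO stock; shaken 2 h at RT at 1,100 RPM. Filtrate diluted and quantified by LC-MS/MS (positive MRM) against a DMSO standard of known concentration.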"}, "[6]": {"settings": "PBS pH 2.0, RT, read-out: pH 2 Solubility (kinetic)"}, "[7]": {"settings": "PBS pH 7.4, RT, read-out: pH 7.4 Solubility (kinetic)"}}, "note": "Where two headings read alike, the source gives them in different places."}
{"smiles": "O=C(Nc1cccnn1)[C@H]1CC12CCN(C(=O)OC(C(F)(F)F)C(F)(F)F)CC2", "note": "[Example 6, 1,1,1,3,3,3-hexafluoropropan-2-yl (S)-1-(pyridazin-3-ylcarbamoyl)-6-azaspiro[2.5]octane-6-carboxylate]", "values": [{"measurement": "blood plasma ratio at 1 μM", "setting": "[1]", "result": 0.72}, {"measurement": "Total plasma concentration", "setting": "[2]", "result": 0.576, "unit": "µM"}, {"measurement": "Total blood concentration", "setting": "[2]", "result": 0.415, "unit": "µM"}, {"measurement": "Total brain concentration", "setting": "[2]", "result": 1.78, "unit": "µM"}, {"measurement": "Kp at 4 h", "setting": "[2]", "result": 3.09}, {"measurement": "Kp uu at 4 h", "setting": "[2]", "result": 2.25}, {"measurement": "CLint scaled at 1 μM", "setting": "[3]", "result": 5.79, "unit": "mL/min/kg"}, {"measurement": "inhibition at 5 mg/kg", "setting": "[4]", "result": 100, "unit": "%"}, {"measurement": "solubility kinetic at 2 h", "setting": "[5]; [6]", "result": 240, "unit": "µM"}, {"measurement": "solubility kinetic at 2 h", "setting": "[5]; [7]", "result": 106, "unit": "µM"}]}
{"smiles": "O=C(NC1CCOCC1)[C@H]1CC12CCN(C(=O)OC(C(F)(F)F)C(F)(F)F)CC2", "note": "[Example 8, 1,1,1,3,3,3-hexafluoropropan-2-yl (S)-1-[(oxan-4-yl)carbamoyl]-6-azaspiro[2.5]octane-6-carboxylate]", "values": [{"measurement": "blood plasma ratio at 1 μM", "setting": "[1]", "result": 0.96}, {"measurement": "Total plasma concentration", "setting": "[2]", "result": 0.124, "unit": "µM"}, {"measurement": "Total blood concentration", "setting": "[2]", "result": 0.119, "unit": "µM"}, {"measurement": "Total brain concentration", "setting": "[2]", "result": 0.255, "unit": "µM"}, {"measurement": "Kp at 4 h", "setting": "[2]", "result": 2.06}, {"measurement": "Kp uu at 4 h", "setting": "[2]", "result": 0.801}, {"measurement": "CLint scaled at 1 μM", "setting": "[3]", "result": 7.75, "unit": "mL/min/kg"}, {"measurement": "inhibition at 5 mg/kg", "setting": "[4]", "result": 100, "unit": "%"}, {"measurement": "solubility kinetic at 2 h", "setting": "[5]; [6]", "result": 308, "unit": "µM"}, {"measurement": "solubility kinetic at 2 h", "setting": "[5]; [7]", "result": 256, "unit": "µM"}]}
